The source of these data is PubChem BioAssay (NCI).

Where “and” joins values, the source holds several entries; their conditions need not be identical. Identical values can stand only once.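 Five concentrations, 48 hours, 96-well plates. GI50: concentration for 50% inhibition of growth. Definition used: TGI = concentration required for complete inhibition of growth.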

Among the test systems are A549 NSCLC; RXF 393 renal; SW-620 colon; OVCAR-5 ovarian; KM12 colon; SF-268 CNS; HOP-92 NSCLC; COLO 205 colon; SF-295 CNS.
Test in all cases: DTP human tumour cell line panel, 48 h

Regarding `C/C(=C1/N=C(c2cc([N+](=O)[O-])ccc2Cl)N(c2ccc(Br)cc2)C1=O)c1ccc(N(CCC#N)CCC#N)cc1C`, the TGI is 62.6 µM in the assay with A549 NSCLC; above 100 µM with RXF 393 renal; 25.5 µM in the assay on SW-620 colon; above 100 µM with OVCAR-5 ovarian; above 100 µM in the assay on KM12 colon; above 100 µM in the assay on SF-268 CNS. Moreover, the TGI is above 100 µM with HOP-92 NSCLC, 97 µM with COLO 205 colon and above 100 µM in the assay on SF-295 CNS.

As for `O=C(Nc1cccc(C(F)(F)F)c1)C(=O)C(C(=O)c1ccc(Cl)c(Cl)c1)C1OC(=O)c2ccccc21` (configuration not stated), the total growth inhibition concentration (TGI) with A549 NSCLC is above 100 µM; in the assay with RXF 393 renal it was 41.7 µM; with SW-620 colon, above 100 µM; with OVCAR-5 ovarian, above 100 µM; in the assay on KM12 colon, above 100 µM; with SF-268 CNS, above 100 µM. Moreover, the TGI in the assay on HOP-92 NSCLC and in the assay on COLO 205 colon was above 100 µM each time.

In the case of `O=C1OC(CC(=O)c2ccc(F)cc2)C(Cl)=C1Cl` (configuration not stated), the TGI was above 100 µM in the assay with A549 NSCLC; 37.5 µM in the assay with RXF 393 renal; 46.2 µM in the assay on SW-620 colon; 44.9 µM in the assay on OVCAR-5 ovarian; 33 µM with KM12 colon; 34.7 µM in the assay with HOP-92 NSCLC. In the assay on SF-295 CNS, this molecule gave a TGI above 100 µM.

Take `O=C(NCCCCCCCCCCCCNC(=O)c1cnc2ccccc2n1)c1cnc2ccccc2n1`: the TGI is above 100 µM with A549 NSCLC; 88.6 µM with RXF 393 renal; above 100 µM with SW-620 colon; above 100 µM in the assay on KM12 colon; above 100 µM in the assay with SF-268 CNS; above 100 µM in the assay on COLO 205 colon. The concentration for total growth inhibition (TGI) with SF-295 CNS was above 100 µM.

As for `C/C(NNC(=O)c1ccccc1O)=C1\C=Nc2ccccc2S1`, the TGI in the assay on A549 NSCLC was 28.2 µM; in the assay with SW-620 colon it was above 100 µM; in the assay with OVCAR-5 ovarian, above 100 µM; with KM12 colon, above 100 µM; with SF-268 CNS it was above 100 µM; in the assay with SF-295 CNS, above 100 µM.

On to `COC(=O)C(=O)C(CC(=O)Nc1cc(Cl)ccc1Cl)C(=O)OC` (configuration not stated), for which the TGI in the assay with A549 NSCLC, in the assay with RXF 393 renal, in the assay with SW-620 colon, in the assay with OVCAR-5 ovarian, in the assay with KM12 colon and in the assay on SF-268 CNS was above 100 µM in each case. The TGI with HOP-92 NSCLC, with COLO 205 colon and in the assay with SF-295 CNS was above 100 µM throughout.

As for `C#CCN(N=O)C(=O)NC(CCCCNC(=O)OCc1ccccc1)C(=O)OCc1ccccc1` (configuration not stated), the TGI in the assay on A549 NSCLC is above 100 µM; with RXF 393 renal, above 100 µM; with SW-620 colon, 41 µM; in the assay on OVCAR-5 ovarian it was 84 µM; in the assay with KM12 colon, above 100 µM; in the assay with SF-268 CNS, above 100 µM. Also, the results for the total growth inhibition concentration (TGI) in the assay with HOP-92 NSCLC, in the assay with COLO 205 colon and in the assay on SF-295 CNS were 32.6 µM, 96.6 µM and above 100 µM, respectively.

As to `CCOC(=O)c1oc2c(OC)ccc3c2c1CCC3`, the TGI with A549 NSCLC, with RXF 393 renal, in the assay with SW-620 colon, in the assay on OVCAR-5 ovarian, in the assay on KM12 colon and in the assay on SF-268 CNS was above 100 µM each time. The concentration for total growth inhibition (TGI) in the assay on HOP-92 NSCLC, in the assay with COLO 205 colon and in the assay with SF-295 CNS was above 100 µM in each case.

With `NC(Cc1ccccc1)C(=O)OCN1C(=O)C2C3C=CC(C2C1=O)C1C2C(=O)N(COC(=O)C(N)Cc4ccccc4)C(=O)C2C31` (configuration not stated), the concentration for total growth inhibition (TGI) in the assay on A549 NSCLC is 61.7 µM and 48.7 µM; with RXF 393 renal, 41.7 µM and 39.3 µM; in the assay with SW-620 colon, 51.3 µM and 52.8 µM; with OVCAR-5 ovarian it was above 100 µM; in the assay on KM12 colon, 40.7 µM and 40.1 µM; in the assay with SF-268 CNS, 48.3 µM and 41.6 µM. The concentration for total growth inhibition (TGI) in the assay with HOP-92 NSCLC was 95.4 µM and > 100 µM; with COLO 205 colon it was 32.8 µM and 32.2 µM; with SF-295 CNS, above 100 µM.

On to `CCc1cccc(C(C)C)c1NC(=O)CC1Sc2ccccc2NC1=O` (configuration not stated), for which the TGI with A549 NSCLC is above 100 µM; in the assay with RXF 393 renal, 96.3 µM; in the assay on SW-620 colon, above 100 µM; in the assay with OVCAR-5 ovarian it was above 100 µM; in the assay with KM12 colon, above 100 µM; with SF-268 CNS, above 100 µM. In addition, the total growth inhibition concentration (TGI) with HOP-92 NSCLC was 95.3 µM; in the assay on COLO 205 colon, above 100 µM; in the assay on SF-295 CNS, above 100 µM.

Regarding `O=C1c2c(O)cccc2C(C(=O)CCCCCC(=O)C2c3cccc(O)c3C(=O)c3c(O)cccc32)c2cccc(O)c21`, the GI50 was 6.6 µM in the assay on A549 NSCLC; 5.44 µM with SW-620 colon; 6.96 µM with OVCAR-5 ovarian; 1.65 µM with KM12 colon; 5.02 µM in the assay on SF-268 CNS; 7.8 µM with COLO 205 colon. Also, the GI50 in the assay with SF-295 CNS was 1.48 µM. For the same molecule, the TGI in the assay on A549 NSCLC was 3.68 µM and 14.5 µM; in the assay with SW-620 colon it was 25 µM and 14.5 µM; in the assay on OVCAR-5 ovarian it was 7.43 µM and 14.4 µM; in the assay on KM12 colon it was 3.71 µM and 5.6 µM; in the assay on SF-268 CNS it was 4.52 µM and 11.9 µM; with HOP-92 NSCLC, 16.8 µM. For the same molecule, the TGI in the assay with COLO 205 colon was 25 µM and 15.5 µM; in the assay with SF-295 CNS, 25 µM and 3.74 µM.

As to `CC(Oc1cc2oc(=O)cc(-c3ccccc3)c2cc1Cl)C(=O)O` (configuration not stated), the TGI in the assay on A549 NSCLC, in the assay with RXF 393 renal, in the assay on SW-620 colon, in the assay with KM12 colon, in the assay with SF-268 CNS and with HOP-92 NSCLC was above 100 µM throughout. In addition, the concentration for total growth inhibition (TGI) in the assay with COLO 205 colon and with SF-295 CNS was above 100 µM each time.

On to `CC(=O)OCCOCn1c2ccccc2c2c3c(c4c5ccccc5n(COCCOC(C)=O)c4c21)C(=O)N(Cc1ccccc1)C3=O`, for which the TGI in the assay on A549 NSCLC, in the assay on RXF 393 renal, in the assay on SW-620 colon, in the assay on OVCAR-5 ovarian, with SF-268 CNS and with HOP-92 NSCLC was above 100 µM each time. This molecule also yielded a total growth inhibition concentration (TGI) in the assay with COLO 205 colon above 100 µM.

With `CCCCC(C(=O)C(=O)Nc1ccc(C)cc1C)C(=O)C(C)C` (configuration not stated), the total growth inhibition concentration (TGI) with A549 NSCLC, in the assay with RXF 393 renal, with SW-620 colon, with OVCAR-5 ovarian, in the assay on KM12 colon and in the assay with SF-268 CNS was above 100 µM throughout. The concentration for total growth inhibition (TGI) in the assay on HOP-92 NSCLC and in the assay with SF-295 CNS was above 100 µM in each case.

As to `CC(=O)Nc1ccccc1-c1nc2ccccc2nc1-c1ccccc1`, the concentration for total growth inhibition (TGI) with A549 NSCLC, in the assay with RXF 393 renal, with SW-620 colon, in the assay on KM12 colon, in the assay on HOP-92 NSCLC and in the assay with COLO 205 colon was above 100 µM each time. The same molecule gave a TGI in the assay with SF-295 CNS above 100 µM.

The term TGI denotes the concentration giving total growth inhibition. A low value points to greater sensitivity of the cells. In general, GI50 refers to the concentration giving 50% growth inhibition.
